Patent publication US20210275518A1, “METHODS OF USING REBASTINIB IN THE TREATMENT OF DISORDERS” (Deciphera Pharmaceuticals, LLC, priority 2020, published 2021)

What was measured:
Format in all cases: in vivo, human
mesothelioma = experiment: Phase 1b/2 rebastinib + paclitaxel, Part 1 patient with mesothelioma; conditions: one patient; 50 mg BID rebastinib + paclitaxel 80 mg/m^2, reduced at Cycle 4 to 25 mg BID + 60 mg/m^2; two prior lines carboplatin and alimta; Cycle 8, Day 1
Procedure: The study consists of two parts (Part 1 and Part 2). In Part 1, patients were assigned to one of two pre-defined dose levels of rebastinib (50 or 100 mg BID) in combination with paclitaxel administered by intravenous (IV) infusion at 80 mg/m^2. Paclitaxel is to be administered by IV infusion at 80 mg/m^2 over approximately 60 minutes on Day 1, Day 8 and Day 15 of repeated 28-day cycles. Rebastinib is to be administered orally prior to the paclitaxel infusion.
Part 1 included treatment of a patient with mesothelioma with 50 mg BID rebastinib and paclitaxel at 80 mg/m^2. The patient had two prior lines of treatment with carboplatin and alimta.

[1] = tested on: triple negative breast cancer; experiment: Phase 1b/2 rebastinib + paclitaxel, Part 2 Cohort 1 (RECIST v1.1)
Description: (§1) Upon determination of the RP2D, Part 2 is initiated to dose up to 165 evaluable patients using the RP2D across five indication-specific cohorts. A Simon's two-stage design is applied to Part 2 to further evaluate the safety, tolerability, and preliminary efficacy of rebastinib in combination with paclitaxel in triple-negative breast (Cohort 1), inflammatory breast (Cohort 2), ovarian (Cohort 3), endometrial adenocarcinoma (Cohort 4), and gynecologic carcinosarcoma (Cohort 5) cancers. Each cohort initially enrolls up to 18 evaluable patients in the first stage. Patients must receive at least 1 dose of the combination and have 1 post-baseline assessment (including assessment of clinical progression) or be discontinued prior to the postbaseline disease assessment due to an AE at least possibly related to rebastinib, to be considered evaluable. Tumor response is assessed according to Response Evaluation Criteria in Solid Tumors (RECIST) Version 1.1. The decision to enroll patients beyond the first stage is based on response assessments obtained after the first post-dose response assessment of the last patient enrolled in the first stage of a cohort. […] If ≤4 responses are seen in a cohort, the cohort will be terminated. If >4 responses are seen prior to the last evaluable patient in the first stage, expanding the cohort may be triggered earlier. Enrollment in each cohort will pause between the first and second stage of the Simon two-stage for evaluation of response. Patients will receive study treatment until they develop progressive disease, experience unacceptable toxicity, or withdraw consent.

[2] = tested on: endometrial adenocarcinoma; experiment: Phase 1b/2 rebastinib + paclitaxel, Part 2 Cohort 4 (RECIST v1.1)
Description: as §1
21 patients were enrolled and completed at least Cycle 1, Day 1 (C1D1); 18 of which had post baseline measurements. 16 of the patients treated with rebastinib were at a starting dose of 100 mg BID and 80 mg/m^2 weekly paclitaxel, of which the doses of 11 were reduced to 50 mg BID and 80 mg/m^2 weekly paclitaxel, and 5 patients were at a starting dose of 50 mg BID and 80 mg/m^2 weekly paclitaxel. Of the 21 patients who completed at least Cycle 1, Day 1, the median age was 66 years, all received at least 1 prior line of paclitaxel/carboplatin, and 20 (95%) received at least 2 prior anti-cancer therapies. Of the 21 patients who completed at least Cycle 1, Day 1, the median duration of treatment was 16 weeks. Of the 21 patients, 18 were determined to be efficacy evaluable patients (mITT).
At a third time point, 38 patients with endometrial cancer were enrolled in this portion of the study as a safety population. 16 of the patients treated with rebastinib were at a starting dose of 100 mg BID and 80 mg/m^2 weekly paclitaxel, of which the doses of 11 were reduced to 50 mg BID and 80 mg/m^2 weekly paclitaxel, and 22 patients were at a starting dose of 50 mg BID and 80 mg/m^2 weekly paclitaxel. 33 of the 38 patients met the met the modified intention-to-treat (mITT) criteria.

[3] = tested on: gynecologic carcinosarcoma; experiment: Phase 1b/2 rebastinib + paclitaxel, Part 2 Cohort 5 (RECIST v1.1); conditions: Cycle 5, Day 1
Description: as §1, with “Enrollment in each cohort will pause between the first and second stage of the Simon two-stage for evaluation of response. Patients will receive study treatment until they develop progressive disease, experience unacceptable toxicity, or withdraw consent.” left out

[4] = Pharmacokinetics of rebastinib given with paclitaxel (Part 1); conditions: 50 mg BID and 100 mg BID in combination with paclitaxel
Description: This is an open-label Phase 1b/2 multicenter study in patients with advanced or metastatic solid tumors where paclitaxel may be considered appropriate treatment. Rebastinib will be administered in combination with paclitaxel in repeated 28-day cycles to primarily assess the safety, tolerability and preliminary efficacy of the combination. Adverse events (AEs) will be assessed, and laboratory values, vital sign measurements, electrocardiograms (ECGs), ophthalmologic examinations, physical examinations and Eastern Cooperative Oncology Group (ECOG) Performance Status (PS) will be obtained to evaluate the safety and tolerability of rebastinib when administered in combination with paclitaxel. Pharmacokinetic (PK) and pharmacodynamic (PD) samples will be collected at pre-specified time points.

[5] = both Cycle 3, Day 1 and Cycle 5, Day 1
[6] = Cohort 4, time point 1, of the eight with stable disease at Cycle 3, Day 1, Cycle 5, Day 1
[7] = Cohort 4, time point 1, rebastinib + paclitaxel, Cycle 3, Day 1
[8] = Cohort 4, time point 2, 18 evaluable patients (mITT)
[9] = Cohort 4, time point 3, of 3 patients who had received Lenvatinib/pembrolizumab
[10] = Cohort 4, time point 4, 33 evaluable patients
[11] = Table 2, Cohort 4, time point 3, mITT N = 33, patients (%)
[12] = Table 2, Cohort 4, time point 3, n 11

Structure (SMILES): CNC(=O)c1cc(Oc2ccc(NC(=O)Nc3cc(C(C)(C)C)nn3-c3ccc4ncccc4c3)c(F)c2)ccn1 [rebastinib]
- Tumor response (mesothelioma): partial response
- Patients with stable disease ([1]; Cycle 3, Day 1): one
- Patients with partial response ([1]; Cycle 8, Day 1): one
- Patients with partial response [1, 5]: one
- Patients with stable disease [1, 5]: two
- Patients with stable disease at Cycle 5, Day 1 and partial response at Cycle 8, Day 1 ([2]; Cohort 4, time point 1, of the eight with stable disease at Cycle 3, Day 1): one
- Patients with partial response [2, 6]: one
- Patients with stable disease [2, 6]: four
- Patients with partial response ([2]; Cohort 4, time point 1, of the four with partial response at Cycle 3, Day 1, Cycle 5, Day 1): two
- Patients with partial response ([2]; Cohort 4, time point 1, of the four with partial response at Cycle 3, Day 1, both Cycle 5, Day 1 and Cycle 8, Day 1): two
- Patients with partial response [2, 7]: four
- Patients with stable disease [2, 7]: Eight
- CBR at 8 weeks [2, 8]: 72%
- ORR [2, 8]: 39%
- Stable disease (SD) determinations [2, 8]: 6
- Partial response (PR) determinations ([2]; Cohort 4, time point 2, 18 evaluable patients (mITT), rebastinib 100 or 50 mg BID with weekly paclitaxel 80 mg/m^2): 7
- Clinical benefit rate at 16 weeks ([2]; Cohort 4, time point 3, 33 patients mITT): 53%
- Objective response rate (ORR) ([2]; Cohort 4, time point 3, 33 patients mITT, rebastinib 100 or 50 mg BID with weekly paclitaxel 80 mg/m^2): 33%
- ORR across subgroups ([2]; Cohort 4, time point 3, FIG. 7, subgroups by age, number of prior regimens, number of prior paclitaxel regimens, histology): consistent
- Patients with partial response [2, 9]: 2
- Patients with stable disease [2, 9]: 1
- Outcome of serious adverse events related (or possibly) to rebastinib ([2]; Cohort 4, time point 4): resolved after dose interruption
- Clinical benefit at 8 weeks [2, 10]: 70%
- Clinical benefit at 16 weeks [2, 10]: 54%
- Confirmed PRs [2, 10]: 8
- PRs [2, 10]: 11
- ORR ([2]; Cohort 4, time point 4, 33 evaluable patients, rebastinib 100 or 50 mg BID with weekly paclitaxel 80 mg/m^2): 33%
- KM median duration of response ([2]; Cohort 4, time point 4, 90% CI: 2.7, NE, median follow up 4.4 months): 7.4 months
- Median PFS ([2]; Cohort 4, time point 4, 90% CI: 3.7, 9.4): 6.2 months
- Best Overall Response: Confirmed Partial Response [2, 11]: 8 (24.2%)
- Best Overall Response: Not Evaluable: discontinued prior to radiological assessment [2, 11]: 5 (15.2%)
- Best Overall Response: Partial Response [2, 11]: 11 (33.3%)
- Best Overall Response: Progressive Disease [2, 11]: 6 (18.2%)
- Best Overall Response: Single Response Awaiting Confirmation [2, 11]: 1 (3.0%)
- Best Overall Response: Stable Disease [2, 11]: 11 (33.3%)
- Best Overall Response: Unconfirmed Single Response [2, 11]: 2 (6.1%)
- Duration of Response, Events (%) [2, 12]: 3 (27.3)
- Time to Response, Mean (SD) [2, 12]: 3.3 (1.7)
- Duration of Response, Kaplan-Meier Median (80% CI) ([2]; Table 2, Cohort 4, time point 3, n 11, NE: Not evaluated): 7.4 (7.4, NE)
- Patients with partial response [3]: one
- Exposure to rebastinib [4]: dose proportional
